In US10836725B2, “Modulators of the integrated stress pathway” (Calico Life Sciences LLC, priority 2016, dated 2020) one finds EC50 data, which are given here for 30 compounds.

pEC50: −log10 of the molar value. Bounds are passed on as bounds.

The experiment deals with ATF4 luciferase reporter. The experiment is described as follows: ATF4-Luc assay in HEK293T cells carrying the ATF4 luciferase reporter (in vitro model of VWMD). It counts as cell-based, human. The following applies: Homo sapiens, HEK-293T, 1 μg/mL tunicamycin, 7 hours, luminescence (One Glo). The method, then:
In order to test exemplary compounds of the invention in a cellular context, a stable VWMD cell line was first constructed. The ATF4 reporter was prepared by fusing the human full-length ATF4 5′-UTR (NCBI Accession No. BC022088.2) in front of the firefly luciferase (FLuc) coding sequence lacking the initiator methionine as described in Sidrauski et al (eLife 2013). The construct was used to produce recombinant retroviruses using standard methods and the resulting viral supernatant was used to transduce HEK293T cells, which were then subsequently selected with puromycin to generate a stable cell line.
HEK293T cells carrying the ATF4 luciferase reporter were plated on polylysine coated 384-well plates (Greiner Bio-one) at 30,000 cells per well. Cells were treated the next day with 1 μg/mL tunicamycin and 200 nM of a compound of Formula (I) for 7 hours. Luminescence was measured using One Glo (Promega) as specified by the manufacturer. Cells were maintained in DMEM with L-glutamine supplemented with 10% heat-inactivated FBS (Gibco) and Antibiotic-Antimycotic solution (Gibco).
Table 2 below summarizes the EC50 data obtained using the ATF4-Luc assay for exemplary compounds of the invention.
Regarding `O=C(COc1ccc(Cl)c(F)c1)NC12CC(C(=O)NCc3ccc(Cl)cc3)(C1)C2` [Compound 117, 3-[2-(4-chloro-3-fluorophenoxy)acetamido]-N-[(4-chlorophenyl)methyl]bicyclo[1.1.1]pentane-1-carboxamide], the pEC50 (in general, the EC50 on a negative log10 scale, so that one unit is a factor of ten) was over 6.60.

As to `CCOc1ccccc1CNC(=O)C12CC(NC(=O)COc3ccc(Cl)c(F)c3)(C1)C2` [Compound 182, 3-[2-(4-chloro-3-fluorophenoxy)acetamido]-N-[(2-ethoxyphenyl)methyl]bicyclo[1.1.1]pentane-1-carboxamide], the pEC50 was under 5.70.

For `O=C(COc1ccc(Cl)c(F)c1)NC12CC(C(=O)NCc3ccc(Cl)c(F)c3)(C1)C2` [Compound 193, 3-[2-(4-chloro-3-fluorophenoxy)acetamido]-N-[(4-chloro-3-fluorophenyl)methyl]bicyclo[1.1.1]pentane-1-carboxamide], the negative logarithm of the EC50 (pEC50) was 6.30 to 6.60.

`Cc1cc(CNC(=O)C23CC(NC(=O)COc4ccc(Cl)c(F)c4)(C2)C3)n(C)n1` [Compound 151, 3-[2-(4-chloro-3-fluorophenoxy)acetamido]-N-[(1,3-dimethyl-1H-pyrazol-5-yl)methyl]bicyclo[1.1.1]pentane-1-carboxamide]: the pEC50 was under 5.70.

With `Cc1ccc(OCCNC(=O)C23CC(NC(=O)COc4ccc(Cl)c(F)c4)(C2)C3)cc1C` [Compound 158, 3-[2-(4-chloro-3-fluorophenoxy)acetamido]-N-[2-(3,4-dimethylphenoxy)ethyl]bicyclo[1.1.1]pentane-1-carboxamide], the pEC50 is over 6.60.

For the compound `O=C(COc1ccc(Cl)c(F)c1)NC12CC(C(=O)NCc3ccno3)(C1)C2` [Compound 222, 3-[2-(4-chloro-3-fluorophenoxy)acetamido]-N-[(1,2-oxazol-5-yl)methyl]bicyclo[1.1.1]pentane-1-carboxamide], the pEC50 was under 5.70.

With `Cc1ccccc1CNC(=O)C12CC(NC(=O)COc3ccc(Cl)c(F)c3)(C1)C2` [Compound 197, 3-[2-(4-chloro-3-fluorophenoxy)acetamido]-N-[(2-methylphenyl)methyl]bicyclo[1.1.1]pentane-1-carboxamide], the pEC50 is 6.00 to 6.30.

On to `Cc1ccnc(CNC(=O)C23CCC(NC(=O)COc4ccc(Cl)c(F)c4)(CC2)CC3O)c1` (stereo not drawn) [Compound 143, 4-[2-(4-chloro-3-fluorophenoxy)acetamido]-2-hydroxy-N-[(4-methylpyridin-2-yl)methyl]bicyclo[2.2.2]octane-1-carboxamide], for which the negative-log EC50 (pEC50) is over 6.60.

For `O=C(COc1ccc(Cl)c(F)c1)NC12CCC(C(=O)NCc3ccccn3)(CC1)C(O)C2` (stereo not drawn) [Compound 139], the pEC50 was 5.70 to 6.00.

Take `Cc1ccc(F)c(CNC(=O)C23CC(NC(=O)COc4ccc(Cl)c(F)c4)(C2)C3)c1` [Compound 174, 3-[2-(4-chloro-3-fluorophenoxy)acetamido]-N-[(2-fluoro-5-methylphenyl)methyl]bicyclo[1.1.1]pentane-1-carboxamide]: the negative logarithm of the EC50 (pEC50) is under 5.70.

`Cc1ccncc1CNC(=O)C12CC(NC(=O)COc3ccc(Cl)c(F)c3)(C1)C2` [Compound 165, 3-[2-(4-chloro-3-fluorophenoxy)acetamido]-N-[(4-methylpyridin-3-yl)methyl]bicyclo[1.1.1]pentane-1-carboxamide]: the pEC50 was under 5.70.

As to `N#Cc1ccc(CNC(=O)C23CCC(NC(=O)COc4ccc(Cl)c(F)c4)(CC2)CC3O)nc1` (stereo not drawn) [Compound 141, 4-[2-(4-chloro-3-fluorophenoxy)acetamido]-N-[(5-cyanopyridin-2-yl)methyl]-2-hydroxybicyclo[2.2.2]octane-1-carboxamide], the pEC50 is over 6.60.

For `O=C(COc1ccc(Cl)c(F)c1)NC12CC(C(=O)NCc3ccon3)(C1)C2` [Compound 235, 3-[2-(4-chloro-3-fluorophenoxy)acetamido]-N-[(1,2-oxazol-3-yl]methyl]bicyclo[1.1.1]pentane-1-carboxamide], the pEC50 is under 5.70.

As for `O=C(COc1ccc(Cl)c(F)c1)NC12CC(C(=O)NCCn3cccn3)(C1)C2` [Compound 252, 3-[2-(4-chloro-3-fluorophenoxy)acetamido]-N-[2-(1H-pyrazol-1-yl)ethyl]bicyclo[1.1.1]pentane-1-carboxamide], the pEC50 was under 5.70.

Take `O=C(COc1ccc(Cl)c(F)c1)NC12CC(C(=O)NCc3ccccc3OC(F)F)(C1)C2` [Compound 243, 3-[2-(4-chloro-3-fluorophenoxy)acetamido]-N-{[2-(difluoromethoxy)phenyl]methyl}bicyclo[1.1.1]pentane-1-carboxamide]: the pEC50 is under 5.70.

For the compound `O=C(COc1ccc(Cl)c(F)c1)NC12CC(C(=O)NCc3nccs3)(C1)C2` [Compound 208, 3-[2-(4-chloro-3-fluorophenoxy)acetamido]-N-[(1,3-thiazol-2-yl)methyl]bicyclo[1.1.1]pentane-1-carboxamide], the negative logarithm of the EC50 (pEC50) was under 5.70.

`Cc1cc(OCCNC(=O)C23CC(NC(=O)COc4ccc(Cl)cc4)(C2)C3)ccc1Cl` [Compound 103, N-[2-(4-chloro-3-methylphenoxy)ethyl]-3-[2-(4-chlorophenoxy)acetamido]-bicyclo[1.1.1]pentane-1-carboxamide]: the negative logarithm of the EC50 (pEC50) was 6.30 to 6.60.

Consider `O=C(COc1ccc(Cl)c(F)c1)NC12CC(C(=O)NCc3ccc(F)cc3)(C1)C2` [Compound 245, 3-[2-(4-chloro-3-fluorophenoxy)acetamido]-N-[(4-fluorophenyl)methyl]bicyclo[1.1.1]pentane-1-carboxamide], for which the pEC50 is under 5.70.

Consider `CN(Cc1ccccc1)C(=O)C12CC(NC(=O)COc3ccc(Cl)c(F)c3)(C1)C2` [Compound 175, N-benzyl-3-[2-(4-chloro-3-fluorophenoxy)acetamido]-N-methylbicyclo[1.1.1]pentane-1-carboxamide], for which the negative-log EC50 (pEC50) was under 5.70.

On to `Cc1cccc([C@@H](C)NC(=O)C23CC(NC(=O)COc4ccc(Cl)c(F)c4)(C2)C3)c1` [Compound 189, 3-[2-(4-chloro-3-fluorophenoxy)acetamido]-N-[(1R)-1-(3-methylphenyl)ethyl]bicyclo[1.1.1]pentane-1-carboxamide], for which the pEC50 was under 5.70.

Regarding `Cc1cc(C)c(CNC(=O)C23CCC(NC(=O)COc4ccc(Cl)c(F)c4)(CC2)CC3O)cn1` (stereo not drawn) [Compound 111, 4-[2-(4-chloro-3-fluorophenoxy)acetamido]-N-[(4,6-dimethylpyridin-3-yl)methyl]-2-hydroxybicyclo[2.2.2]octane-1-carboxamide], the negative-log EC50 (pEC50) was under 5.70.

On to `O=C(COc1ccc(Cl)c(F)c1)NC12CC(C(=O)NCc3cccc(Cl)c3)(C1)C2` [Compound 219, 3-[2-(4-chloro-3-fluorophenoxy)acetamido]-N-[(3-chlorophenyl)methyl]bicyclo[1.1.1]pentane-1-carboxamide], for which the negative logarithm of the EC50 (pEC50) is under 5.70.

For `Cn1ccc(CNC(=O)C23CCC(NC(=O)COc4ccc(Cl)c(F)c4)(CC2)CC3O)n1` (stereo not drawn) [Compound 116, 4-[2-(4-chloro-3-fluorophenoxy)acetamido]-2-hydroxy-N-[(1-methyl-1H-pyrazol-3-yl)methyl]bicyclo[2.2.2]octane-1-carboxamide], the pEC50 was under 5.70.

On to `Cc1cc(CNC(=O)C23CC(NC(=O)COc4ccc(Cl)c(Cl)c4)(C2)C3)n(C)n1` [Compound 154, 3-[2-(3,4-dichlorophenoxy)acetamido]-N-[(1,3-dimethyl-1H-pyrazol-5-yl)methyl]bicyclo[1.1.1]pentane-1-carboxamide], for which the pEC50 was under 5.70.

Turning to `Cc1ccc(OCCNC(=O)C23CC(NC(=O)COc4ccc(Cl)cc4)(C2)C3)cc1` [Compound 105, 3-[2-(4-chlorophenoxy)acetamido]-N-[2-(4-methylphenoxy)ethyl]bicyclo-[1.1.1]pentane-1-carboxamide], the negative-log EC50 (pEC50) was 6.00 to 6.30.

For the compound `O=C(COc1ccc(Cl)c(F)c1)NC12CCC(C(=O)NCc3ccc(Cl)cc3)(CC1)C(O)C2` (stereo not drawn) [Compound 132, 4-[2-(4-chloro-3-fluorophenoxy)acetamido]-N-[(4-chlorophenyl)methyl]-2-hydroxybicyclo[2.2.2]octane-1-carboxamide], the pEC50 was over 6.60.

`O=C(COc1ccc(Cl)c(F)c1)NC12CCC(C(=O)NCc3ccc(OC(F)(F)F)cc3)(CC1)C(O)C2` (stereo not drawn) [Compound 133, 4-[2-(4-chloro-3-fluorophenoxy)acetamido]-2-hydroxy-N-{[4-(trifluoromethoxy)phenyl]methyl}bicyclo[2.2.2]octane-1-carboxamide]: the negative-log EC50 (pEC50) is over 6.60.

For the compound `O=C(COc1ccc(Cl)c(F)c1)NC12CC(C(=O)NCc3ccc(F)c(C(F)(F)F)c3)(C1)C2` [Compound 180, 3-[2-(4-chloro-3-fluorophenoxy)acetamido]-N-{[4-fluoro-3-(trifluoromethyl)phenyl]methyl}bicyclo [1.1.1]pentane-1-carboxamide], the negative-log EC50 (pEC50) was under 5.70.

On to `O=C(COc1ccc(Cl)c(F)c1)NC12CC(C(=O)NCc3cc(F)cc(C(F)(F)F)c3)(C1)C2` [Compound 231, 3-[2-(4-chloro-3-fluorophenoxy)acetamido]-N-{[3-fluoro-5-(trifluoromethyl)phenyl]methyl}bicyclo[1.1.1]pentane-1-carboxamide], for which the negative logarithm of the EC50 (pEC50) was under 5.70.

Turning to `O=C(COc1ccc(Cl)c(F)c1)NC12CC(C(=O)NCc3cccc(OC(F)F)c3)(C1)C2` [Compound 250, 3-[2-(4-chloro-3-fluorophenoxy)acetamido]-N-{[3-(difluoromethoxy)phenyl]methyl}bicyclo[1.1.1]pentane-1-carboxamide], the negative logarithm of the EC50 (pEC50) is under 5.70.
